Laboratory results taken from US20240382459A1, “MECHANISMS OF ANDROGEN RECEPTOR-CENTERED TRANSCRIPTIONAL NETWORKS IN REGULATING CD8+ T CELL EXHAUSTION AND THERAPEUTIC APPLICATIONS IN CANCER” (Ohio State Innovation Foundation, priority 2023, published 2024).

What was measured:
[1] = system: AR-overexpressing Jurkat cells; details: 100 nM, re-stimulated Days 0, 3, 6, over 9 days
Procedure: Data are mean±SEM. Statistical significance was determined by Student's t test. **p≤0.01, ****p≤0.0001.
Empty vector and androgen receptor-expressing Jurkat cells were seeded into six well plates (Gibco) at 2×10^5 cells per well and treated with 100 nM testosterone (Sigma) or DHT (Millipore), alongside methanol vehicle control (Thermo Fisher). Every three days, cells were counted using the BioRad TC20 automated cell counter, passaged, and re-stimulated with the same androgen concentrations over a time course of 3, 6, and 9 days.

[2] = system: human Tcf7 promoter; details: HEK293FT with or without EGFP-C1-AR, 24 h, 500 ng/mL testosterone or 50 nM DHT
Procedure: Renilla and Red Firefly luciferase activity, the latter of which was regulated by a 1 kb long WT or mutant Tcf7 promoter sequence lacking putative AREs (FIG. 13A), were simultaneously measured in control or EGFP-C1-AR overexpressing HEK293FT post 24 h stimulation with 500 ng/mL testosterone (T) or 50 nM DHT.
Red Firefly luciferase activity, as regulated by a 1 kb long human WT or mutant Tcf7 promoter sequence lacking putative AREs, was measured in EGFP-C1-AR overexpressing HEK293FT cells post 24 h stimulation with 500 ng/mL testosterone or vehicle control.
WT or mutated human Tcf7 promoter sequence of one kb upstream from its transcriptional start site was cloned into the pMCS-Red Firefly Luciferase vector (Thermo Fisher). Mutants lacked individual (“Mut 1-4”) or all putative AR binding sites. Briefly, 40,000 HEK293FT cells were grown on a 96 well plate at 80% confluence. Cells were transfected with 200 ng of pEGFP-C1-human AR (a gift from Michael Mancini, Addgene plasmid #28235) and indicated Tcf7 luciferase reporter plasmids using Lipofectamine 2000 (Thermo Fisher) on Day 0 in triplicates. Renilla luciferase gene expression was used to ensure transfection efficiency (Thermo Fisher). […] Cells were then harvested and luciferase activity was analyzed by using Dual-Luciferase Reporter Assay System (Promega).

[3] = system: CD8+ tumor-infiltrating lymphocytes (TILs) from female patients with bladder cancer; test: AR blockade of in vitro expanded CD8+ bladder cancer TILs, flow cytometry; type: cell-based, human; details: enzalutamide (50 uM in the presence of 10 nM DHT; varying doses), ex vivo expanded TILs
Description: FIGS. 19A, 19B, 19C, 19D and 19E show androgen receptor blockade of in vitro expanded CD8+ bladder cancer TILs promotes effector differentiation and function. […] Statistical significance in FIGS. 19A-C determined by repeated measures ANOVA. P values were corrected for multiple hypothesis testing using the Dunnett method. Statistical significance in FIG. 19E determined by Student's paired t test. *P≤0.05.
In FIG. 19, we investigated the impact of androgen receptor (AR) blockade on in vitro expanded CD8^+ tumor-infiltrating lymphocytes (TILs) from female patients with bladder cancer, focusing on effector differentiation and function. Panel A (FIG. 19A) illustrates the effect of dihydrotestosterone (DHT) treatment on the CD8+GZMB^high population within ex vivo expanded TILs. […] Panel D (FIG. 19D) assesses IFNγ production in CD8+ TILs after PMA/ionomycin/golgi block stimulation with or without enzalutamide. Lastly, Panel E presents the median fluorescence intensity (MFI) of IFN-gamma within the CD8+GZMB^high population. Statistical significance in Panels A-C was determined by repeated measures ANOVA, with P values corrected for multiple hypothesis testing using the Dunnett method. In Panel E (FIG. 19E), statistical significance was determined by Student's paired t test (*P≤0.05).

[4] = system: MB49 mouse urothelial carcinoma cells; test: MB49 tumor growth in WT mice after daily oral enzalutamide; type: in vivo; details: male WT mice, enzalutamide 25 mg/kg daily oral gavage from Day 5, vs vehicle
Description: FIGS. 5A, 5B, 5C, 5D, 5E, 5F, 5G, 5H, 5I, and 5J show T cell intrinsic AR signaling contributes to male bias in tumor growth and accumulation of CD8^+ progenitor exhausted T cells. MB49 growth and circulating free testosterone levels in (5A) Four Core Genotype or (5B) WT mice three weeks post sham or surgical castration (cast). […] LNCaP lysates were used as the positive AR control. Rep, replicate. […] For tumor growths, mean area (mm^2)±SEM are reported, with statistical significance determined using the repeated measures two-way ANOVA. n=6-11 mice per group.
MB49 (a gift from C. Voelkel-Johnson from the Medical University of South Carolina) and BKL171 mouse urothelial carcinoma cells were cultured in Dulbecco's modified Eagle's medium with 10% heat-inactivated fetal bovine serum and 1% penicillin/streptomycin. 5×10^5 tumor cells were resuspended in 100 μL ice cold PBS for subcutaneous injection into the right flank of a mouse. For antibody-mediated T cell depletion experiments, mice were injected intraperitoneally with 200 μg of anti-mouse CD4 (Clone GK1.5, BioXCell) and/or CD8 neutralizing antibodies (Clone 53-6.7, BioXCell), followed by 100 μg thereafter on the indicated days. […] Tumor surface area (width×length mm^2) was measured using an electronic caliper starting on Day 4 post implantation.

[5] = system: Tcf7; test: qPCR of naive CD8+ T cells stimulated with testosterone, type I IFN or both; type: cell-based, mouse
Procedure: See methods for details. […] Blue, Male; Pink, Female.
Mouse spleens and tumors were mechanically disrupted, with the latter additionally subjected to digestion with 1 mg/mL Collagenase D (Roche) for 30 min at 37° C. while shaken at 125 rpm. Excess volume of ice-cold PBS with 2% bovine serum albumin was used to inactivate the enzymatic activity. Red Blood Cell Lysis Buffer (BioLegend) was utilized on tissues before they were passed through 70 μm filters to prepare single cell suspensions. For cytokine production experiments, cells were re-stimulated by 50 ng/mL PMA (Sigma), 1 μg/mL Ionomycin (Sigma) and 1× Brefeldin A (BioLegend) in a 48-well plate for 2 hours at 37° C. For in vitro cultures, purified CD8^+ T cells were left untreated or stimulated with 50 ng/mL testosterone (Sigma) and/or 50 U/mL mouse IFN alpha A (PBL Assay Science). Cells were stained at 4° C. with eFluor506 fixable viability dye for 10 minutes (Invitrogen), followed by extracellular surface markers and FcR block concurrently for 30 minutes. […]
RNA was extracted from FACS/MACS-isolated CD8^+ T cells and reverse-transcribed using RNeasy Micro Kit (Qiagen) and SuperScript™ IV VILO™ Master Mix with ezDNase™ Enzyme (ThermoFisher Scientific), respectively. Quantitative PCR was performed with the following primers: […]

Structure (SMILES)	proliferation [1]	Tcf7 promoter activity (Red Firefly luciferase) [2]	effector differentiation and function of CD8+ TILs (GZMB high frequency, PD-1 high TOX high frequency, IFNγ) [3]	MB49 tumor growth [4]	Ar expression (qPCR) ([5]; female CD8+ T cells, testosterone)	Tcf7 expression (qPCR) ([5]; male CD8+ T cells, acute testosterone exposure, 6 hours)
C[C@]12CCC(=O)C[C@@H]1CC[C@@H]1[C@@H]2CC[C@]2(C)[C@@H](O)CC[C@@H]12 [DHT, dihydrotestosterone]	decreased proliferation	stimulated Tcf7 promoter activity in an AR dependent manner				
CNC(=O)c1ccc(N2C(=S)N(c3ccc(C#N)c(C(F)(F)F)c3)C(=O)C2(C)C)cc1F [enzalutamide]			promoting effector differentiation and function	partial protection against tumor growth		
C[C@]12CC[C@H]3[C@@H](CCC4=CC(=O)CC[C@@]43C)[C@@H]1CC[C@@H]2O [testosterone]	decreased proliferation	stimulated Tcf7 promoter activity in an AR dependent manner			induction of Ar expression	significantly increased
